Assay results taken from PubChem BioAssay AID2060491 (Molecular Pharmacology Branch, DTP, NCI, 2025).
“And” between values parts separate entries of the source, which are not always exact repeats. Equal entries are not always repeated.

Test system: 857933-349-R-J2-PDC complex spheroids, viability
Test: Anticancer human tumor 857933-349-R-J2-PDC patient-derived colon adenocarcinoma cell line growth inhibition [GQUAD]
Details: for viability, T/C: stronger effect = lower value
Description: DNA G-quadruplex Stabilizer Agents in Combinations in Complex Spheroids
A high-throughput screen of multi-cell type tumor spheroids was designed to identify active combinations of DNA G-quadruplex stabilizer agents and targeted small molecules. Complex spheroids include a stromal component modeled by human endothelial cells (HUVEC) and fibroblasts modeled by human mesenchymal stem cells (MSCs). The concentration ranges selected for each drug and investigational agent were based upon clinically achievable concentrations if the clinical Cmax of the agent was known.
Compounds. The drugs and investigational agents: pidnarulex (CX-5461; NSC782164), APTO-253 (NSC789042), BRACO-19 (NSC847499), peposertib (NSC802822), ceralasertib (NSC780249), elimusertib (NSC800525), camonsertib (NSC841442), AZD-1390 (NSC803789), olaparib (NSC753686), talazoparib (NSC767125), ART-558 (NSC835418), sotorasib (NSC818433), MRTX-1133 (NSC836407), SN-38 (NSC673596), topotecan (NSC609699), etoposide (NSC141540), doxorubicin (NSC123127), gemcitabine (NSC613327), 5-fluorouracil (NSC19893), paclitaxel (NSC125973), vemurafenib (NSC761431), panobinostat (NSC761190), R-306465 (JNJ-16241199; NSC773264), adavosertib (NSC754352), TP-3654 (NSC805149), carboplatin (NSC241240), KSQ-4279 (NSC840948), and staurosporine (NSC755774) were obtained from the National Cancer Institute (NCI) Developmental Therapeutics Program Chemical Repository (34). The FDA-approved anticancer drug set is available from the NCI Developmental Therapeutics Program. […] The stock solutions were prepared in dimethyl sulfoxide (DMSO, Sigma-Aldrich, St. Louis, MO, cat. D2650) at 800-fold the tested concentration and stored at -70 degrees C prior to their use. All drugs and investigational agents were tested over a range starting from a high concentration at or near the clinical Cmax and decreasing in half-log increments. If the clinical Cmax for an agent had not been determined, the highest concentration tested was 10 microM.
2.3 Cell Culture. All cells were maintained in an incubator at 37 degrees C and 5% CO2 with 95% humidity. The PDC lines were cultured according to standard operating procedures established by the NCI PDMR. All PDCs were thawed and cultured in Matrigel-coated flasks prepared with a working solution of 1X Ham's F-12 nutrient mix, without supplementation (Invitrogen, cat. 11765054), 100 U/mL penicillin-streptomycin (Invitrogen, cat. 15140122), and 2.5% Matrigel (Corning Inc., cat. 354248) for the first three passages. The 857933-349-R-J2-PDC line was cultured in 6C/Colon 1B media, which includes advanced DMEM/F-12 (Thermo Fisher Scientific, cat. 12634028), 10 mM HEPES (Thermo Fisher Scientific, cat. 15630080), 1X GlutaMAX supplement (Thermo Fisher Scientific, cat. 35050061), 0.1 mg/mL primocin (InvivoGen, cat. ant-pm-2), 10% defined fetal bovine serum, heat inactivated (HyClone Laboratories Inc., cat. SH30070.03HI), 50% L-WRN conditioned media (ATCC, cat. CRL-3276), 1.25 mM N-Acetyl-L-cysteine (Sigma-Aldrich, cat. A9165), 10 mM nicotinamide (Sigma-Aldrich, cat. N0636), 1X B-27 supplement (Thermo Fisher Scientific, cat. 17504044), 1X N-2 supplement (Thermo Fisher Scientific, cat. 17502048), 10 microM Y-27632 dihydrochloride (Tocris Bioscience, cat. 1254), and 50 ng/mL human EGF recombinant protein (Thermo Fisher Scientific, cat. PHG0311). The 485176-168-R4-J1-PDC line was cultured in Panc media, which includes all 6C/Colon 1B media components plus 100 ng/mL human FGF-10 (Thermo Fisher Scientific, cat. 100-26), 500 nM SB-431542 (Selleckchem, cat. S1067), and gastrin (Tocris, cat. 3006).
[…]

[1] = curve of first compound, second compound 0.0316 µM
[2] = curve of first compound, second compound 0.1 µM
[3] = curve of first compound, second compound 0.316 µM
[4] = curve of first compound, second compound 1 µM
[5] = curve of first compound, second compound 3.16 µM
[6] = curve of first compound, second compound 10 µM
[7] = second compound 0.0316 µM, first compound 0.0316 µM
[8] = second compound 0.0316 µM, first compound 0.1 µM
[9] = second compound 0.0316 µM, first compound 0.316 µM
[10] = second compound 0.0316 µM, first compound 1 µM
[11] = second compound 0.0316 µM, first compound 3.16 µM
[12] = second compound 0.0316 µM, first compound 10 µM
[13] = second compound 0.1 µM, first compound 0.0316 µM
[14] = second compound 0.1 µM, first compound 0.1 µM
[15] = second compound 0.1 µM, first compound 0.316 µM
[16] = second compound 0.1 µM, first compound 1 µM
[17] = second compound 0.1 µM, first compound 3.16 µM
[18] = second compound 0.1 µM, first compound 10 µM
[19] = second compound 0.316 µM, first compound 0.0316 µM
[20] = second compound 0.316 µM, first compound 0.1 µM
[21] = second compound 0.316 µM, first compound 0.316 µM
[22] = second compound 0.316 µM, first compound 1 µM
[23] = second compound 0.316 µM, first compound 3.16 µM
[24] = second compound 0.316 µM, first compound 10 µM
[25] = second compound 1 µM, first compound 0.0316 µM
[26] = second compound 1 µM, first compound 0.1 µM
[27] = second compound 1 µM, first compound 0.316 µM
[28] = second compound 1 µM, first compound 1 µM
[29] = second compound 1 µM, first compound 3.16 µM
[30] = second compound 1 µM, first compound 10 µM
[31] = second compound 3.16 µM, first compound 0.0316 µM
[32] = second compound 3.16 µM, first compound 0.1 µM
[33] = second compound 3.16 µM, first compound 0.316 µM
[34] = second compound 3.16 µM, first compound 1 µM
[35] = second compound 3.16 µM, first compound 3.16 µM
[36] = second compound 3.16 µM, first compound 10 µM
[37] = second compound 10 µM, first compound 0.0316 µM
[38] = second compound 10 µM, first compound 0.1 µM
[39] = second compound 10 µM, first compound 0.316 µM
[40] = second compound 10 µM, first compound 1 µM
[41] = second compound 10 µM, first compound 3.16 µM
[42] = second compound 10 µM, first compound 10 µM
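Further: spheroids exposed to compounds for one week before readout.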
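Wherever viability, T/C is given: percent viability relative to vehicle DMSO wells taken as 100%.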

## Cn1ncnc1[C@H]1c2n[nH]c(=O)c3cc(F)cc(c23)N[C@@H]1c1ccc(F)cc1
Compound 0.000999 µM
  viability, T/C: 102% and 99.8% and 101%
Compound 0.00316 µM
  viability, T/C: 99.8% and 104% and 94%
Compound 0.00999 µM
  viability, T/C: 99.8% and 105% and 98.9%
Compound 0.0316 µM
  viability, T/C: 94.3% and 104% and 94.9%
Compound 0.0999 µM
  viability, T/C: 97.9% and 101% and 106%
Compound 0.316 µM
  viability, T/C: 96.8% and 101% and 85.9%
Curve of compound
  IC50: > 0.316 µM

## O=C(c1cc(Cc2n[nH]c(=O)c3ccccc23)ccc1F)N1CCN(C(=O)C2CC2)CC1 + Cc1cnc(CNC(=O)c2c(=O)c3ccc(N4CCCN(C)CC4)nc3n3c2sc2ccccc23)cn1
[1]
  IC50: > 10 µM
[2]
  IC50: > 10 µM
[3]
  IC50: < 0.0316 µM
[4]
  IC50: < 0.0316 µM
[5]
  IC50: < 0.0316 µM
[6]
  IC50: < 0.0316 µM
[7]
  viability, T/C: 101%
[8]
  viability, T/C: 88.6%
[9]
  viability, T/C: 99.9%
[10]
  viability, T/C: 83.7%
[11]
  viability, T/C: 84.8%
[12]
  viability, T/C: 77.8%
[13]
  viability, T/C: 66%
[14]
  viability, T/C: 80.9%
[15]
  viability, T/C: 62%
[16]
  viability, T/C: 58.4%
[17]
  viability, T/C: 68.7%
[18]
  viability, T/C: 72.3%
[19]
  viability, T/C: 29.3%
[20]
  viability, T/C: 31.1%
[21]
  viability, T/C: 26.4%
[22]
  viability, T/C: 31.4%
[23]
  viability, T/C: 34%
[24]
  viability, T/C: 38.4%
[25]
  viability, T/C: 4.96%
[26]
  viability, T/C: 4.81%
[27]
  viability, T/C: 4.45%
[28]
  viability, T/C: 3.67%
[29]
  viability, T/C: 5.47%
[30]
  viability, T/C: 6.38%
[31]
  viability, T/C: 2.65%
[32]
  viability, T/C: 2.92%
[33]
  viability, T/C: 2.93%
[34]
  viability, T/C: 3.33%
[35]
  viability, T/C: 2.59%
[36]
  viability, T/C: 2.87%
[37]
  viability, T/C: 1.22%
[38]
  viability, T/C: 2.2%
[39]
  viability, T/C: 2.36%
[40]
  viability, T/C: 1.84%
[41]
  viability, T/C: 2.2%
[42]
  viability, T/C: 1.68%

## COc1cc(C2c3cc4c(cc3C(OC3OC5COC(C)OC5C(O)C3O)C3COC(=O)C23)OCO4)cc(OC)c1O (configuration not stated)
Compound 0.0316 µM
  viability, T/C: 86.8% and 82.9% and 104%
Compound 0.1 µM
  viability, T/C: 53.1% and 58.3% and 93.6%
Compound 0.316 µM
  viability, T/C: 55.8% and 48.1% and 82.6%
Compound 1 µM
  viability, T/C: 48.6% and 52.9% and 78.4%
Compound 3.16 µM
  viability, T/C: 42.6% and 39.1% and 59.5%
Compound 10 µM
  viability, T/C: 27.6% and 27.1% and 41.6%

## CC1COCCN1c1cc(C2(S(C)(=N)=O)CC2)nc(-c2ccnc3[nH]ccc23)n1 (configuration not stated) + Cc1[nH]c2ccc(F)cc2c1-c1nc2c3cccnc3c3ncccc3c2[nH]1
[1]
  IC50: 6.7 µM
[2]
  IC50: 6.02 µM
[3]
  IC50: 6.09 µM
[4]
  IC50: 7.1 µM
[5]
  IC50: 7.16 µM
[6]
  IC50: 6.45 µM
[7]
  viability, T/C: 101%
[8]
  viability, T/C: 103%
[9]
  viability, T/C: 88.5%
[10]
  viability, T/C: 75.4%
[11]
  viability, T/C: 59.6%
[12]
  viability, T/C: 45%
[13]
  viability, T/C: 99.9%
[14]
  viability, T/C: 101%
[15]
  viability, T/C: 93.3%
[16]
  viability, T/C: 80.9%
[17]
  viability, T/C: 58.8%
[18]
  viability, T/C: 43%
[19]
  viability, T/C: 106%
[20]
  viability, T/C: 108%
[21]
  viability, T/C: 90.2%
[22]
  viability, T/C: 79.5%
[23]
  viability, T/C: 58.9%
[24]
  viability, T/C: 43.1%
[25]
  viability, T/C: 103%
[26]
  viability, T/C: 98.2%
[27]
  viability, T/C: 91.9%
[28]
  viability, T/C: 83.6%
[29]
  viability, T/C: 59.7%
[30]
  viability, T/C: 45.7%
[31]
  viability, T/C: 108%
[32]
  viability, T/C: 96.3%
[33]
  viability, T/C: 81.2%
[34]
  viability, T/C: 86.3%
[35]
  viability, T/C: 60.4%
[36]
  viability, T/C: 43.6%
[37]
  viability, T/C: 104%
[38]
  viability, T/C: 98.5%
[39]
  viability, T/C: 92.5%
[40]
  viability, T/C: 90.9%
[41]
  viability, T/C: 62.3%
[42]
  viability, T/C: 42.1%
